Experimental data published in patent publication US20230081426A1, “COMPOUNDS AND METHODS FOR KRAS MODULATION AND INDICATIONS THEREFOR” (Plexxikon Inc., priority 2020, published 2023).

Experiments:
[1] = target: T1, G12V-mutant human KRAS (amino acid residues 1-188) (Homo sapiens, UniProt P01116, G12V); assay: KRAS Binding Competition Assay (AlphaScreen; biotinylated KRpep-2d analogue), G12V; conditions: geometric mean, read-out: KRAS GMean IC50 (uM) MUTATION: G12V
T1 construct: G12V-mutant human KRAS (amino acid residues 1-188) with FLAG tag was purified from E. coli; made in house; host or cells: E. coli

[2] = target: T2, G12D-mutant human KRAS (amino acid residues 1-188) (Homo sapiens, UniProt P01116, G12D); assay: KRAS Binding Disruption Assay (AlphaScreen; biotinylated KRpep-2d analogue or RAF1-RBD), G12D; conditions: KRAS G12D; geometric mean; read-out: KRAS GMean IC50 (uM) MUTATION: G12D
T2 construct: G12D or G12C-mutant human KRAS (amino acid residues 1-188) with FLAG tag; made in house; host or cells: E. coli
Outline: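 Displacement format with mutant KRAS, biotinylated KRpep-2d analogue or RAF1-RBD (5-20 nM each) at pH 7.5 with 5 mM MgCl2.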

NC(=O)CCc1nc(N2[C@@H]3CC[C@H]2CNC3)c2ccc(-c3cc(O)cc4ccccc34)cc2n1 [P-0233, 3-(4-((1R,5S)-3,8-diazabicyclo[3.2.1]octan-8-yl)-7-(3-hydroxynaphthalen-1-yl)quinazolin-2-yl)propanamide]
IC50 [1]: 0.0001 to 10 µM | IC50 [2]: 0.0001 to 10 µM

CN1CCC[C@H]1COc1nc(N2C[C@H]3CC[C@@H](C2)N3)c2ccc(-c3cncc(Cl)c3Cl)cc2n1 [P-0234, 4-((1R,5S)-3,8-diazabicyclo[3.2.1]octan-3-yl)-7-(4,5-dichloropyridin-3-yl)-2-(((S)-1-methylpyrrolidin-2-yl)methoxy)quinazoline]
IC50 [1]: 100 to 1000 µM | IC50 [2]: 10 to 100 µM

CN1CCC[C@H]1COc1nc(N2CC3CCC(C2)N3)c2ccc(-c3cc(Cl)cn4ccnc34)cc2n1 [P-0235]
IC50 [1]: 10 to 100 µM | IC50 [2]: 10 to 100 µM

CN1CCC[C@H]1COc1nc(N2C[C@H]3CC[C@@H](C2)N3)c2ccc(-c3c(Cl)ccc4[nH]ccc34)cc2n1 [P-0236, 4-((1R,5S)-3,8-diazabicyclo[3.2.1]octan-3-yl)-7-(5-chloro-1H-indol-4-yl)-2-(((S)-1-methylpyrrolidin-2-yl)methoxy)quinazoline]
IC50 [1]: 10 to 100 µM | IC50 [2]: 10 to 100 µM

CN1CCc2ccc(Oc3nc(N4[C@@H]5CC[C@H]4CNC5)c4ccc(-c5cc(O)cc6ccccc56)cc4n3)cc2C1 [P-0237, 4-(4-((1R,5S)-3,8-diazabicyclo[3.2.1]octan-8-yl)-2-((2-methyl-1,2,3,4-tetrahydroisoquinolin-7-yl)oxy)quinazolin-7-yl)naphthalen-2-ol]
IC50 [1]: 10 to 100 µM | IC50 [2]: 10 to 100 µM

CN1CCc2cc(Oc3nc(N4[C@@H]5CC[C@H]4CNC5)c4ccc(-c5cc(O)cc6ccccc56)cc4n3)ccc2C1 [P-0238, 4-(4-((1R,5S)-3,8-diazabicyclo[3.2.1]octan-8-yl)-2-((2-methyl-1,2,3,4-tetrahydroisoquinolin-6-yl)oxy)quinazolin-7-yl)naphthalen-2-ol]
IC50 [1]: 0.0001 to 10 µM | IC50 [2]: 0.0001 to 10 µM

CN1CCCC(Oc2nc(N3[C@@H]4CC[C@H]3CNC4)c3ccc(-c4cc(O)cc5ccccc45)cc3n2)C1 (stereo partly drawn) [P-0239, 4-(4-((1R,5S)-3,8-diazabicyclo[3.2.1]octan-8-yl)-2-((1-methylpiperidin-3-yl)oxy)quinazolin-7-yl)naphthalen-2-ol]
IC50 [1]: 0.0001 to 10 µM | IC50 [2]: 0.0001 to 10 µM

Oc1cc(-c2ccc3c(N4[C@@H]5CC[C@H]4CNC5)nc(Cc4cccnc4)nc3c2)c2ccccc2c1 [P-0240, 4-(4-((1R,5S)-3,8-diazabicyclo[3.2.1]octan-8-yl)-2-(pyridin-3-ylmethyl)quinazolin-7-yl)naphthalen-2-ol]
IC50 [1]: 0.0001 to 10 µM | IC50 [2]: 0.0001 to 10 µM

Oc1cc(-c2ccc3c(N4[C@@H]5CC[C@H]4CNC5)nc(CCc4cccnc4)nc3c2)c2ccccc2c1 [P-0241, 4-(4-((1R,5S)-3,8-diazabicyclo[3.2.1]octan-8-yl)-2-(2-(pyridin-3-yl)ethyl)quinazolin-7-yl)naphthalen-2-ol]
IC50 [1]: 0.0001 to 10 µM | IC50 [2]: 0.0001 to 10 µM

CN(C)c1ccc(CCc2nc(N3C[C@H]4CC[C@@H](C3)N4)c3ccc(-c4cc(O)cc5ccccc45)cc3n2)cc1 [P-0242, 4-(4-((1R,5S)-3,8-diazabicyclo[3.2.1]octan-3-yl)-2-(4-(dimethylamino)phenethyl)quinazo-lin-7-yl)naphthalen-2-ol]
IC50 [1]: 0.0001 to 10 µM | IC50 [2]: 0.0001 to 10 µM

Nc1ccc(CCc2nc(N3[C@@H]4CC[C@H]3CNC4)c3ccc(-c4cc(O)cc5ccccc45)cc3n2)cc1 [P-0243, 4-(2-(4-aminophenethyl)-4-((1R,5S)-3,8-diazabicyclo[3.2.1]octan-8-yl)quinazolin-7-yl)naphthalen-2-ol]
IC50 [1]: 0.0001 to 10 µM | IC50 [2]: 0.0001 to 10 µM

CN(C)c1ccc(/C=C/c2nc(N3[C@@H]4CC[C@H]3CNC4)c3ccc(-c4cc(O)cc5ccccc45)cc3n2)cc1 [P-0244, 4-(4-((1R,5S)-3,8-diazabicyclo[3.2.1]octan-8-yl)-2-((E)-4-(dimethylamino)styryl)quinazolin-7-yl)naphthalen-2-ol]
IC50 [1]: 10 to 100 µM | IC50 [2]: 10 to 100 µM

C[C@@H](Oc1nc(N2C[C@H]3CC[C@@H](C2)N3)c2ccc(-c3cc(O)cc4ccccc34)cc2n1)[C@@H]1CCCN1C [P-0245, 4-(4-((1R,5S)-3,8-diazabicyclo[3.2.1]octan-3-yl)-2-((R)-1-((S)-1-methylpyrrolidin-2-yl)ethoxy)quinazolin-7-yl)naphthalen-2-ol]
IC50 [1]: 0.0001 to 10 µM | IC50 [2]: 0.0001 to 10 µM

CN1CC[C@@H](NC(=O)N2[C@H]3CC[C@@H]2CN(c2nc(OC[C@@H]4CCCN4C)nc4c(F)c(-c5cc(O)cc6ccccc56)ccc24)CC3)C1 [P-0246, (1R,6S)-3-(8-fluoro-7-(3-hydroxynaphthalen-1-yl)-2-(((S)-1-methylpyrrolidin-2-yl)methoxy)quinazolin-4-yl)-N-((R)-1-methylpyrrolidin-3-yl)-3,9-diazabicyclo[4.2.1]nonane-9-carboxamide]
IC50 [1]: 10 to 100 µM | IC50 [2]: 0.0001 to 10 µM

CN1CCN(CCCC(=O)N2C3CCC2CN(c2nc(OC[C@@H]4CCCN4C)nc4c(F)c(-c5cc(O)cc6ccccc56)ccc24)CC3)CC1 (stereo partly drawn) [P-0247, 1-(3-(8-fluoro-7-(3-hydroxynaphthalen-1-yl)-2-(((S)-1-methylpyrrolidin-2-yl)methoxy)quinazolin-4-yl)-3,9-diazabicyclo[4.2.1]nonan-9-yl)-4-(4-methylpiperazin-1-yl)butan-1-one]
IC50 [1]: 10 to 100 µM | IC50 [2]: 10 to 100 µM

CN1CCC[C@H]1COc1nc(N2CC[C@@H]3CC[C@H](C2)N3C(=O)NC2CCOC2)c2ccc(-c3cc(O)cc4ccccc34)c(F)c2n1 (stereo partly drawn) [P-0248, (1R,6 S)-3-(8-fluoro-7-(3-hydroxynaphthalen-1-yl)-2-(((S)-1-methylpyrrolidin-2-yl)methoxy)quinazolin-4-yl)-N-(tetrahydrofuran-3-yl)-3,9-diazabicyclo[4.2.1]nonane-9-carboxamide]
IC50 [1]: 0.0001 to 10 µM | IC50 [2]: 10 to 100 µM

CN1CC[C@@H](NC(=O)N2C3COCC2CN(c2nc(OC[C@@H]4CCCN4C)nc4c(F)c(-c5cc(O)cc6ccccc56)ccc24)C3)C1 [P-0250, 7-(8-fluoro-7-(3-hydroxynaphthalen-1-yl)-2-(((S)-1-methylpyrrolidin-2-yl)methoxy)quinazolin-4-yl)-N-((R)-1-methylpyrrolidin-3-yl)-3-oxa-7,9-diazabicyclo[3.3.1]nonane-9-carboxamide]
IC50 [1]: 0.0001 to 10 µM | IC50 [2]: 0.0001 to 10 µM

CN1CCN(CCCC(=O)N2C3COCC2CN(c2nc(OC[C@@H]4CCCN4C)nc4c(F)c(-c5cc(O)cc6ccccc56)ccc24)C3)CC1 [P-0252, 1-(7-(8-fluoro-7-(3-hydroxynaphthalen-1-yl)-2-(((S)-1-methylpyrrolidin-2-yl)methoxy)quinazolin-4-yl)-3-oxa-7,9-diazabicyclo[3.3.1]nonan-9-yl)-4-(4-methylpiperazin-1-yl)butan-1-one]
IC50 [1]: 10 to 100 µM | IC50 [2]: 10 to 100 µM

CN1CCC[C@H]1COc1nc(N2C[C@H]3CC[C@@H](C2)N3)c2ccc(-c3c[nH]c4ccc(Cl)cc34)cc2n1 [P-0253, 4-((1R,5S)-3,8-diazabicyclo[3.2.1]octan-3-yl)-7-(5-chloro-1H-indol-3-yl)-2-(((S)-1-methylpyrrolidin-2-yl)methoxy)quinazoline]
IC50 [1]: 100 to 1000 µM | IC50 [2]: 10 to 100 µM

CN1CCC[C@H]1COc1nc(N2C[C@H]3CC[C@@H](C2)N3)c2ccc(-c3c[nH]c4ccccc34)cc2n1 [P-0254, 4-((1R,5S)-3,8-diazabicyclo[3.2.1]octan-3-yl)-7-(1H-indol-3-yl)-2-(((S)-1-methylpyrrolidin-2-yl)methoxy)quinazoline]
IC50 [1]: 10 to 100 µM | IC50 [2]: 10 to 100 µM

CN1CCC[C@H]1COc1nc(N2C[C@H]3CC[C@@H](C2)N3)c2ccc(-c3c[nH]c4cccc(Cl)c34)cc2n1 [P-0255, 4-((1R,5S)-3,8-diazabicyclo[3.2.1]octan-3-yl)-7-(4-chloro-1H-indol-3-yl)-2-(((S)-1-methylpyrrolidin-2-yl)methoxy)quinazoline]
IC50 [1]: 10 to 100 µM | IC50 [2]: 10 to 100 µM

CN1CCC[C@H]1COc1nc(N2[C@@H]3CC[C@H]2CNC3)c2ccc(-c3cccc4ccccc34)cc2n1 [P-0257, 4-((1R,5S)-3,8-diazabicyclo[3.2.1]octan-8-yl)-2-(((S)-1-methylpyrrolidin-2-yl)methoxy)-7-(naphthalen-1-yl)quinazoline]
IC50 [1]: 10 to 100 µM | IC50 [2]: 10 to 100 µM

CN1CCC[C@H]1COc1nc(N2[C@@H]3CC[C@H]2CNC3)c2ccc(-c3ccc4ccccc4c3)cc2n1 [P-0258, 4-((1R,5S)-3,8-diazabicyclo[3.2.1]octan-8-yl)-2-(((S)-1-methylpyrrolidin-2-yl)methoxy)-7-(naphthalen-2-yl)quinazoline]
IC50 [1]: 10 to 100 µM | IC50 [2]: 10 to 100 µM

CN1CCC[C@H]1COc1nc(N2[C@@H]3CC[C@H]2CNC3)c2ccc(-c3c(O)ccc4ccccc34)cc2n1 [P-0259, 1-(4-((1R,5S)-3,8-diazabicyclo[3.2.1]octan-8-yl)-2-(((S)-1-methylpyrrolidin-2-yl)methoxy)quinazolin-7-yl)naphthalen-2-ol]
IC50 [1]: 10 to 100 µM | IC50 [2]: 0.0001 to 10 µM

CN1CCC[C@H]1COc1nc(N2[C@@H]3CC[C@H]2CNC3)c2ccc(-c3cncc(Br)c3Cl)cc2n1 [P-0260, 4-((1R,5S)-3,8-diazabicyclo[3.2.1]octan-8-yl)-7-(5-bromo-4-chloropyridin-3-yl)-2-(((S)-1-methylpyrrolidin-2-yl)methoxy)quinazoline]
IC50 [1]: 10 to 100 µM | IC50 [2]: 10 to 100 µM

Cc1ccnc(-c2ccc3c(N4[C@@H]5CC[C@H]4CNC5)nc(OC[C@@H]4CCCN4C)nc3c2)c1C [P-0261, 4-((1R,5S)-3,8-diazabicyclo[3.2.1]octan-8-yl)-7-(3,4-dimethylpyridin-2-yl)-2-(((S)-1-methylpyrrolidin-2-yl)methoxy)quinazoline]
IC50 [1]: 100 to 1000 µM | IC50 [2]: 100 to 1000 µM
